Where two headings read alike, the source gives them in different places. One block for each compound: values may come before it.
Key:
[1] = in vivo; parameters: species or system Male SD rats; conditions: rat, plasma; for AUC at 8 h: 0-8 hr, read-out: AUC0^8 (Area under the plasma concentration time curve)
Method: In the same manner as Experiment Example 1 mentioned above, 960 mg of PEG-6000, 20 mg of lansoprazole and 20 mg of sodium oleate were evenly melted and dispersed. The resulting dispersion was filled in 200 mg portions into metallic rectal suppository containers for rats and cooled to provide composition for rectal administration for rats. In addition, using 960 mg of Witepsol W-35 (Dynamit Nobel), 20 mg of lansoprazole and 20 mg of sodium oleate, composition for rectal administration for rats in otherwise the same manner as above.
Male SD rats weighing 250-280 g (Japan Clea) were provided. The animals were allowed food and water ad libitum and, then, fasted for about 16 hours (water was available ad libitum). Using the rats fasted for about 16 hours, the composition for rectal administration prepared above were inserted into the anus and, to prevent expulsion of the drug, the perianal skin was clipped.
For control purposes, 80 mg of lansoprazole, 1.5 ml of PEG-400 and 9.5 ml of 0.5% aqueous solution of sodium hydrogen carbonate were admixed to prepare an injectable solution. This solution was injected, in a volume of 0.25 ml, into the femoral vein of each rat (intravenous dosing).
At 0.08, 0.17, 0.25, 0.5, 1.0, 2.0, 4.0 and 8.0 hours after administration,the blood was drawn from the caudal vein of rats using a blood sampling tube containing a small amount of heparin. Each blood sample was centrifuged (3000 rpm, 10 min.) to separate the plasma (0.1 ml) and lansoprazole in each plasma sample was assayed. The assay method was as follows. To 0.1 ml of plasma were added 0.5 ml of 0.5% aqueous solution of sodium hydrogen carbonate and 3 ml of chloroform and the mixture was shaken vigorously for about 5 minutes and centrifuged at 2500 rpm for about 5 minutes. The under layer (chloroform layer), 2 ml, was taken and the solvent chloform was evaporated off by blasting with nitrogen gas. The residue was redissolved in 0.2 ml of HPLC mobile phase and subjected to HPLC analysis (injection amount 50 μl) under the following conditions.
Column: YMC A-303 (5 μm), 4.6 mm in internal diameter and 25 cm in length (YMC).
Mobile phase: a mixture of water, acetonitrile and triethylamine (60:40:1) adjusted to pH 7.0 with phosphoric acid.
Detection: A UV spectrophotometer (exciting wavelength 285 nm)
Column temperature: Room temperature

[2] = Stability of lansoprazole composition for rectal administration: change in color on storage at 40° C. and 75% relative humidity (Experimental Example 2); format: physicochemical; conditions: relative humidity 75%, conclusion from Table 2
Method: (§1) After each of them was melted by warming at 60° C., 20 mg of lansoprazole and a specified amount [See Table 1] of sodium oleate were admixed with the base to prepare a composition. Each composition was stored at room temperature (25° C.) and the change in color was evaluated by comparing it with the composition prior to storage.
Using different fatty acid salts, the stability of lansoprazole in compositions for rectal administration was evaluated by the same procedure as Experiment Example 1. EPG-4000 or Witepsol W-35 was used as the base and sodium oleate, sodium palmitate or sodium caprate was used as the fatty acid salt, each in the amount indicated in Table 2. In this stability test, the test compositions were stored at a temperature of 40° C. and a relative humidity of 75%.

[3] = Stability of lansoprazole composition for rectal administration: change in color on storage at room temperature (25° C.) (Experiment Example 1); format: physicochemical; conditions: conclusion from Table 1
Method: Using PEG-4000 (Wako Pure Chemical Industries, Japan) or Witepsol W-35 (Dynamit Novel, Germany) as a base for rectal administration, the stability of lansoprazole in the composition was compared between the inclusion of sodium oleate and the exclusion of sodium oleate.
as §1

[4] = Rectal, Oleaginous base (Witepsol W-35) with sodium oleate
[5] = Rectal, Water-soluble base (PEG-6000) with sodium oleate

AUC at 8 h [1, 4]: 1080 ng·h/mL
concentration at 0.08 h [1, 4]: 90 ng/mL
concentration at 0.17 h [1, 4]: 140 ng/mL
concentration at 0.25 h [1, 4]: 210 ng/mL
concentration at 0.5 h [1, 4]: 310 ng/mL
concentration at 1 h [1, 4]: 360 ng/mL
concentration at 2 h [1, 4]: 180 ng/mL
concentration at 4 h [1, 4]: 90 ng/mL
concentration at 8 h [1, 4]: 50 ng/mL
AUC at 8 h [1, 5]: 890 ng·h/mL
concentration at 0.08 h [1, 5]: 160 ng/mL
concentration at 0.17 h [1, 5]: 240 ng/mL
concentration at 0.25 h [1, 5]: 310 ng/mL
concentration at 0.5 h [1, 5]: 420 ng/mL
concentration at 1 h [1, 5]: 330 ng/mL
concentration at 2 h [1, 5]: 110 ng/mL
concentration at 4 h [1, 5]: 60 ng/mL
concentration at 8 h [1, 5]: 30 ng/mL
AUC at 8 h ([1]; iv): 3860 ng·h/mL
concentration at 0.08 h ([1]; iv): 6960 ng/mL
concentration at 0.17 h ([1]; iv): 5390 ng/mL
concentration at 0.25 h ([1]; iv): 4830 ng/mL
concentration at 0.5 h ([1]; iv): 3280 ng/mL
concentration at 1 h ([1]; iv): 910 ng/mL
concentration at 2 h ([1]; iv): 70 ng/mL
concentration at 4 h ([1]; iv): 5 ng/mL
concentration at 8 h ([1]; iv): 2 ng/mL
Structure (SMILES): Cc1c(OCC(F)(F)F)ccnc1C[S+]([O-])c1nc2ccccc2[nH]1 (stereo not shown) [lansoprazole, 2-[2-[3-methyl-4-(2,2,2-trifluoroethoxy)pyridyl]methylsulfinyl]benzimidazole]

Structure (SMILES): CCCCCCCCCC(=O)[O-].[Na+] [sodium caprate]
contribution to the stability of the active drug [2]: contributed a great deal to the stability of the active drug

Structure (SMILES): CCCCCCCC/C=C\CCCCCCCC(=O)[O-].[Na+] [sodium oleate]
stabilization of lansoprazole [3]: stabilized lansoprazole
contribution to the stability of the active drug [2]: contributed a great deal to the stability of the active drug

Structure (SMILES): CCCCCCCCCCCCCCCC(=O)[O-].[Na+] [sodium palmitate]
contribution to the stability of the active drug [2]: contributed a great deal to the stability of the active drug

Source: US5635520A, “Anti-ulcer compositions suitable for rectal administration” (Takeda Chemical Industries, Ltd., priority 1993, dated 1997)
